For experiment [1], the target named is T1, recombinant human HDAC2 (Homo sapiens, UniProt Q92769).
T1 construct: purchased BPS Bioscience
Put plainly: Fluorogenic HDAC inhibition assay, HDAC2 (Boc-L-Lys(Ac)-AMC substrate). In kind it is biochemical. Particulars: for IC50: maximum preincubation time 24 h. On the procedure: (§1) 10 μL of the enzyme stock was added to 30 μL of the probes and preincubated for different preincubation times.

For experiment [2], the target named is recombinant His-tagged HDAC2 (Homo sapiens, UniProt Q92769). Put plainly: Photoaffinity labeling (photocrosslinking) of HDAC2 with TSA competition, biotin tag, streptavidin-HRP western blot. The experiment is classed as binding. Particulars: probe 25 μM, HDAC2 1.25 μM, Trichostatin A 125 μM (5-fold molar excess), 24 h, 254 nm UV. In general terms: Immunoblotting shows a protein as a band on a membrane.
Procedure: Photoaffinity labeling studies were conducted with the probes using commercially available recombinant His-tagged HDAC2. […] The loading was confirmed by using nickel-HRP, which recognized the His-tag of the recombinant HDAC2 protein.
500 μM of DBCO-PEG4-biotin conjugate (Click Chemistry tools) in photolabeling buffer was added to initiate the [3+2] cycloaddition reaction with HDAC2-probe adduct. The cycloaddition reaction was carried out for 3 h at room temperature. Western blotting was done with 1.5 ug of purified protein with 5× loading buffer containing 10% SDS, 0.05% bromophenol blue, 50% glycerol, and β-mercaptoethanol. […] After electrophoresis, protein was transferred to a polyvinylidiene difluoride membrane (Iblot-Invitrogen). The membrane was incubated for 12 h with 5% albumin fraction V (Sigma-aldrich) in 1× Tris based saline supplemented with 0.1% Tween-20 (TBS-T). The membrane was washed three times with TBST and then incubated with Ni-HRP (1:2000) in TBST for 1 h under room temperature with slight agitation. After three washes in TBS-T, the chemilumiscent signal was detected using the enhanced chemiluminescence (ECL) kit from Pierce (Pierce Biotechnology, Rockford, Ill.). […] After three washes in PBST and water, the chemilumiscent signal was detected using the enhanced chemiluminescence (ECL) kit from Pierce (Pierce Biotechnology, Rockford, Ill.).

Experiment [3] addresses T2, purified recombinant human HDAC8 from E. coli (Homo sapiens, UniProt Q9BY41).
T2 construct: made in house; host or cells: E. coli
T2 sequence (Q9BY41 1-377): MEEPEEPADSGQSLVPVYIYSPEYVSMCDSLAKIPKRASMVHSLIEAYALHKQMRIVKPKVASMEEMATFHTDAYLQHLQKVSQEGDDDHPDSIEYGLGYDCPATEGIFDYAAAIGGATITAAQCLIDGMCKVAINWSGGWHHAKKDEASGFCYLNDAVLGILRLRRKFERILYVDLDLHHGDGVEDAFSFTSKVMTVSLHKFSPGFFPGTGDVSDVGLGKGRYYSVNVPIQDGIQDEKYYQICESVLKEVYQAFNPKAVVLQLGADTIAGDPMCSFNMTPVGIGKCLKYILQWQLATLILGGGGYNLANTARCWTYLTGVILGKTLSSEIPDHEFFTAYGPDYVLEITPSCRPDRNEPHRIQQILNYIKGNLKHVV
Put plainly: Fluorogenic HDAC inhibition assay, HDAC8 (Fluor de Lys substrate). The experiment is classed as biochemical. The conditions noted are these: 10 μM inhibitor, preincubation 3 h. On the procedure:
as §1

T1 sequence (Q92769 whole entry): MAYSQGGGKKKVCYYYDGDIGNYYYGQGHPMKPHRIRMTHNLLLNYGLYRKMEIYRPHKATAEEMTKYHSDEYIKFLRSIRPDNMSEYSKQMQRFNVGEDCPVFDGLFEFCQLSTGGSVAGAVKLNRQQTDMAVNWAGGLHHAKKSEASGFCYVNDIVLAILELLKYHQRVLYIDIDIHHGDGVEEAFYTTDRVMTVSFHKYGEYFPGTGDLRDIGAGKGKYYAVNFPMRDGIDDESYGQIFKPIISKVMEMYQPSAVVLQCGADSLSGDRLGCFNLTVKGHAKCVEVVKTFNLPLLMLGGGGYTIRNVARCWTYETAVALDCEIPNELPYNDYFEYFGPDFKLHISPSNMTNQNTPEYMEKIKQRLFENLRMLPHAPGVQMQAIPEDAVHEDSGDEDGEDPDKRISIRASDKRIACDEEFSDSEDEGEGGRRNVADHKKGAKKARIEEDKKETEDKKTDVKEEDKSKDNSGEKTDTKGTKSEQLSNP
Chain of recombinant His-tagged HDAC2 (Q92769 whole entry): as above

As to `[N-]=[N+]=NCCOc1ccc(C(=O)Nc2cc(-c3ccccc3)ccc2N)cc1N=[N+]=[N-]` [probe 1e, N-(4-amino-[1,1′-biphenyl]-3-yl)-3-azido-4-(2-azidoethoxy)benzamide], the IC50 in experiment [1] stood at 830 nM. Besides, the “increase in inhibition of HDAC2 upon preincubation (IC50 ratio)” value in experiment [1] (preincubation 24 h vs 5 min) was 41 fold.

In the case of `[N-]=[N+]=NCCOc1ccc(C(=O)Nc2cc(-c3cccs3)ccc2N)cc1N=[N+]=[N-]` [probe 1f, N-(2-amino-5-(thiophen-2-yl)phenyl)-3-azido-4-(2-azidoethoxy)benzamide], the IC50 in experiment [1] turned out to be 750 nM.

`[N-]=[N+]=NCCC(=O)Nc1ccc(C(=O)Nc2cc(N=[N+]=[N-])ccc2N)cc1` [probe 1g, N-(2-amino-5-azidophenyl)-4-(3-azidopropanamido)benzamide]: the “decrease in biotinylation of HDAC2 in the presence of competing ligand” value in experiment [2] was “slightly less pronounced”. Turning to `[N-]=[N+]=Nc1cccc(COC(=O)NCc2ccc(C(=O)Nc3cc(-c4ccccc4)ccc3N)cc2)c1` [probe 2a, 3-azidobenzyl 4-((4-amino-[1,1′-biphenyl]-3-yl)carbamoyl)benzylcarbamate], the entries for the “inhibition of HDAC8” value in experiment [3] and in experiment [3] (10 µM) were “inactive” and “did not inhibit”, respectively.

A word on the IC50: it is the concentration that inhibits the measured activity by half.

These data come from US9108943B2, “Photoreactive benzamide probes for histone deacetylase 2” (THE BOARD OF TRUSTEES OF THE UNIVERSITY OF ILLINOIS, priority 2013, dated 2015).
